In patent US9175058B2, “Soluble immune response suppressor polypeptides and treatment of multiple sclerosis and other autoimmune diseases” (THE BOARD OF REGENTS OF THE UNIVERSITY OF TEXAS SYSTEM, priority 2004, dated 2015):
No end group written: not given here.

Key:
Assay type in all cases: in vivo, mouse
acute EAE in B6 mice [1] = experiment: Parenteral (injected) SIRS peptide 1-21 in acute EAE induced by MOG peptide 35-55; conditions: day −7 through day 14 post immunization, n=8/group; for inhibition of EAE compared to placebo: FIG. 2
EAE in B6 recipients = experiment: Adoptive transfer of MOG-restimulated splenocytes from SIRS peptide-injected donors to B6 recipients; conditions: recipients of 10×10^6 MOG-activated splenocytes i.p. from donors injected with 10 mg day −7 through day +14, FIG. 3
Protocol: B6 mice effector donors were actively immunized with myelin oligodendrocyte glycoprotein peptide 35-55 described above (day 0) and injected (day −7 through day +14 post-immunization) with 0.1 ml of control saline (n=8) or 10 mg of soluble immune response suppressor peptide 1-21 (n=8). On day 14 post inoculation, splenocytes from both saline-injected (mock control) and soluble immune response suppressor peptide-injected (active treatment) immunized donor mice were re-stimulated in vitro with […] myelin oligodendrocyte glycoprotein peptide 35-55 at 20×10^6 splenocytes for >1 hour and then diluted to 2-4 million cells/ml and cultured for 48-72 hours in RPMi with 10% FCS and 1% Pen/Strep. Myelin oligodendrocyte glycoprotein-restimulated cells were washed, counted and passively transferred (10×10^6) i.p. into 8-10 week old female B6 recipients.
The control group reached a maximum disease score of 2.1.

acute EAE in B6 mice [2] = experiment: Ingested (gavaged) SIRS peptide 1-21 in acute EAE induced by MOG peptide 35-55
SOCS-1 [3] = experiment: Quantitative PCR of SOCS-1 transcripts in spleen and spinal cord of SIRS peptide-fed EAE mice; conditions: for SOCS-1 transcript level in CNS target tissue normalized to b-actin: spinal cord, day 23-26 post active immunization
Excerpt: (§1) Quantitative PCR can be performed for nominal EAE cytokine or transcript of interest. In particular, the mean measured transcript levels for IL-2/IFN-γ (Th1-like), IL-4/IL-10 (Th2-like) and other nominal biologic response modifiers of interest (e.g. TGF-β, IL-1, IL-6, IL-12, TNF-α) will be normalized to the b-actin control and expressed as % b-actin molecules.
(§2) Inflamed spinal cords from soluble immune response suppressor peptide-fed B6 mice (active treatment group) or from mock fed donor mice (control) were utilized for the experiments below. Intact spinal cord can be ejected by injecting saline into the distal end of the spinal canal and stored in RNALater (Ambion). The spinal cord is disrupted and the resulting cell suspension is filtered through a Falcon Cell Strainer 2350 (Becton Dickinson, San Jose, Calif.). Total RNA was processed on day 23-26 post active immunization, and relative numbers of transcripts for IFN-γ, IL-4, IL-10, SOCS-1, SOCS-2, and SOCS-3 were determined by quantitative PCR. The measured mean transcript levels were normalized to b-actin control (normalization mean=COI mean/b-actin×100) and expressed as % b-actin molecules.

SOCS-3 [4] = experiment: Quantitative PCR of SOCS-3 transcripts in spleen and spinal cord of SIRS peptide-fed EAE mice; conditions: for SOCS-3 transcript level in CNS target tissue normalized to b-actin: spinal cord, day 23-26 post active immunization
Excerpt: as §1, §2

IL-4 = experiment: Quantitative PCR of IL-4 transcripts in spleen and spinal cord of SIRS peptide-fed EAE mice; conditions: for IL-4 transcript level in CNS target tissue normalized to b-actin: spinal cord, day 23-26 post active immunization
Excerpt: as §1, §2

SOCS-2 = experiment: Quantitative PCR of SOCS-2 transcripts in spleen and spinal cord of SIRS peptide-fed EAE mice
Excerpt: as §1, §2

IL-10 = experiment: Quantitative PCR of IL-10 transcripts in spleen and spinal cord of SIRS peptide-fed EAE mice
Excerpt: as §1, §2

IFN-γ = experiment: Quantitative PCR of IFN-γ transcripts in spleen and spinal cord of SIRS peptide-fed EAE mice
Excerpt: as §1, §2

[5] = tested on: diabetes mellitus in NOD mice; experiment: Ingested SIRS peptide 1-21 in spontaneous diabetes of NOD mice; conditions: NOD female mice fed 100 μg daily from age ten weeks, FIG. 6 and FIG. 7
Protocol: NOD female mice (NOD MrkTacfBR) were obtained from Taconic Farms at eight weeks of age and feeding with mock (n=12) or 100 μg SIRS peptide 1-21 (n=6) in 0.1 ml DPBS daily was initiated at ten weeks. One hundred micrograms was used because this was an effective dose for inhibiting EAE (experimental autoimmune encephalomyelitis) in mice. The mice were maintained and fed under SPF conditions in microisolators, and handled under negative pressure sterile hoods. Surveillance mice were maintained with experimental mice and examined regularly for routine murine pathogens.
Mice were followed after initiation of feeding by weekly blood glucose determination (Life Scan One Touch II, Johnson & Johnson) beginning at week 18 thru 22. Animals were considered diabetic if two consecutive blood glucose determinations were above >11.1 mmol/l or >[…]. […]
Mock or SIRS peptide 1-21 was administered using a 2.5 cm syringe fitted with a 22-24 gauge ball point needle directly to the stomach and proximal small intestine (Thomas Scientific, Swedesboro, N.J.) daily to NOD mice beginning at age ten weeks. The peptide was directly delivered to the distal esophagus, stomach and proximal small intestine (as determined experimentally by injecting Evans blue during routine feeding and subsequent sacrifice). […]

SOCS-1 [6] = experiment: Quantitative PCR of SOCS-1 transcripts in spleen and spinal cord of SIRS peptide-fed EAE mice; conditions: for Splenic SOCS-1 transcript level normalized to b-actin: spleen, day 23-26 post active immunization
SOCS-3 [7] = experiment: Quantitative PCR of SOCS-3 transcripts in spleen and spinal cord of SIRS peptide-fed EAE mice; conditions: for Splenic SOCS-3 transcript level normalized to b-actin: spleen, day 23-26 post active immunization
C57/BL6 mice = experiment: Induction of acute EAE by active immunization with MOG peptide 35-55; parameters: dose or concentration left out as unconfirmed; conditions: day 21, s.c. immunization with peptide in IFA, pertussis toxin, FIG. 1
[8] = CNS target organ (spinal cord) of peptide-fed mice
[9] = splenic samples, data not shown
[10] = splenic samples from peptide-fed mice

Sequence: MTEENQQSSQPKTTINNAGDS
- inhibition of EAE compared to placebo (acute EAE in B6 mice [1]; 0.1 mg injected): no significant inhibition
- inhibition of EAE compared to placebo (acute EAE in B6 mice [1]; 1 mg injected): no significant inhibition
- inhibition of disease severity compared to placebo (acute EAE in B6 mice [1]; 10 mg injected (s.c.), FIG. 2, ρ<0.001): significant inhibition of disease severity
- clinical disease in recipients after passive transfer (EAE in B6 recipients): did not have any prolonged clinical disease
- delay in the onset of disease compared to placebo (acute EAE in B6 mice [2]; 0.1 mg gavaged, FIG. 4): prolonged delay in the onset of disease
- inhibition of EAE disease severity compared to placebo (acute EAE in B6 mice [2]; 0.1 mg gavaged, day −7 through day 14, n=4/group, FIG. 4): significant inhibition of disease severity
- inhibition of EAE disease severity compared to placebo (acute EAE in B6 mice [2]; 0.1 mg gavaged, day −7 through day 14, n=4/group, FIG. 4, listed as soluble immune response suppressor peptide): significant inhibition
- inhibition of EAE compared to placebo (acute EAE in B6 mice [2]; 0.1 mg gavaged, repeat experiment, n=4/group, FIG. 5): no significant inhibition
- inhibition of EAE compared to placebo (acute EAE in B6 mice [2]; 1 mg gavaged, day −7 through day 14, n=4/group, FIG. 4): significant inhibition
- delay in the onset of disease compared to placebo (acute EAE in B6 mice [2]; 1 mg gavaged, repeat experiment, FIG. 5): prolonged delay in the onset of disease
- inhibition of disease severity compared to placebo (acute EAE in B6 mice [2]; 1 mg gavaged, repeat experiment, FIG. 5, p<0.038 Mann-Whitney): significant inhibition of disease severity
- delay in the onset of disease compared to placebo (acute EAE in B6 mice [2]; 10 mg gavaged, FIG. 4): prolonged delay in the onset of disease
- inhibition of disease severity compared to placebo (acute EAE in B6 mice [2]; 10 mg gavaged, day −7 through day 14, n=4/group, FIG. 4): significant inhibition of disease severity
- delay in the onset of disease compared to placebo (acute EAE in B6 mice [2]; 100 mg gavaged, FIG. 4): prolonged delay in the onset of disease
- inhibition of disease severity compared to placebo (acute EAE in B6 mice [2]; 100 mg gavaged, day −7 through day 14, n=4/group, FIG. 4): significant inhibition of disease severity
- delay in the onset of disease compared to placebo (acute EAE in B6 mice [2]; 100 mg gavaged, repeat experiment, FIG. 5): prolonged delay in the onset of disease
- inhibition of disease severity compared to placebo (acute EAE in B6 mice [2]; 100 mg gavaged, repeat experiment, FIG. 5, p<0.001): significant inhibition of disease severity
- increase in SOCS-1 expression (SOCS-1 [3]; [8]): 75-175 % of control
- SOCS-1 transcript level in CNS target tissue normalized to b-actin (SOCS-1 [3]; fed 0.1 mg): 0.14 % b-actin molecules
- SOCS-1 transcript level in CNS target tissue normalized to b-actin (SOCS-1 [3]; fed 1 mg): 0.19 % b-actin molecules
- SOCS-1 transcript level in CNS target tissue normalized to b-actin (SOCS-1 [3]; fed 10 mg): 0.22 % b-actin molecules
- SOCS-1 transcript level in CNS target tissue normalized to b-actin (SOCS-1 [3]; fed 100 mg): 0.14 % b-actin molecules
- decrease in SOCS-3 (SOCS-3 [4]; [8]): 45%
- SOCS-3 transcript level in CNS target tissue normalized to b-actin (SOCS-3 [4]; fed 0.1 mg): 0.45 % b-actin molecules
- SOCS-3 transcript level in CNS target tissue normalized to b-actin (SOCS-3 [4]; fed 1 mg): 0.54 % b-actin molecules
- SOCS-3 transcript level in CNS target tissue normalized to b-actin (SOCS-3 [4]; fed 10 mg): 0.28 % b-actin molecules
- SOCS-3 transcript level in CNS target tissue normalized to b-actin (SOCS-3 [4]; fed 100 mg): 0.22 % b-actin molecules
- decrease in IL-4 expression (IL-4; [8]): up to 80%
- IL-4 transcript level in CNS target tissue normalized to b-actin (IL-4; fed 0.1 mg): 0.04 % b-actin molecules
- IL-4 transcript level in CNS target tissue normalized to b-actin (IL-4; fed 1 mg): 0.15 % b-actin molecules
- IL-4 transcript level in CNS target tissue normalized to b-actin (IL-4; fed 10 mg): 0.05 % b-actin molecules
- IL-4 transcript level in CNS target tissue normalized to b-actin (IL-4; fed 100 mg): 0.02 % b-actin molecules
- difference in IL-4 compared to control (IL-4; [9]): no significant difference
- difference in SOCS-2 compared to control (SOCS-2; cord samples): no significant differences
- difference in SOCS-2 compared to control (SOCS-2; [9]): no significant difference
- difference in IL-10 compared to control (IL-10; cord samples): no significant differences
- difference in IL-10 compared to control (IL-10; [9]): no significant difference
- difference in IFN-γ compared to control (IFN-γ; cord samples): no significant differences
- difference in IFN-γ compared to control (IFN-γ; [9]): no significant difference
- frequency of mice becoming diabetic compared to mock treated mice [5]: decreased frequency of mice becoming diabetic
- onset of T1DM compared to mock treated mice [5]: significantly delayed onset of T1DM
- Splenic SOCS-1 transcript level normalized to b-actin (SOCS-1 [6]; fed 0.1 mg): 0.28 % b-actin molecules
- Splenic SOCS-1 transcript level normalized to b-actin (SOCS-1 [6]; fed 1 mg): 0.30 % b-actin molecules
- Splenic SOCS-1 transcript level normalized to b-actin (SOCS-1 [6]; fed 10 mg): 0.23 % b-actin molecules
- Splenic SOCS-1 transcript level normalized to b-actin (SOCS-1 [6]; fed 100 mg): 0.23 % b-actin molecules
- decrease in SOCS-1 compared to control (SOCS-1 [6]; [10]): up to 30%
- Splenic SOCS-3 transcript level normalized to b-actin (SOCS-3 [7]; fed 0.1 mg): 0.38 % b-actin molecules
- Splenic SOCS-3 transcript level normalized to b-actin (SOCS-3 [7]; fed 1 mg): 0.28 % b-actin molecules
- Splenic SOCS-3 transcript level normalized to b-actin (SOCS-3 [7]; fed 10 mg): 0.21 % b-actin molecules
- Splenic SOCS-3 transcript level normalized to b-actin (SOCS-3 [7]; fed 100 mg): 0.18 % b-actin molecules
- decrease in SOCS-3 compared to control (SOCS-3 [7]; [10]): 60%

Sequence: MEVGWYRSPFSRVVHLYRNGK [Synthetic peptide 35-55 from myelin oligodendrocyte glycoprotein, used to induce EAE]
- mean clinical score (scale 0-6) (C57/BL6 mice): 3.44
